In article PMC10794144, “A novel antibiotic class targeting the lipopolysaccharide transporter” (Nature, 2024):
≈ marks a conversion by molar mass, not a printed value. Read-outs that look alike come from different tables or passages of the source.

How the values were obtained:
[1] = test system: K. pneumoniae ATCC 700603; test: microbe, parasite or virus in culture; details: Klebsiella pneumoniae
Summary of the method: (§1)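 Standard broth microdilution per CLSI; diluted 0.5 McFarland inocula in cation-adjusted Mueller-Hinton broth; visual or OD600 endpoint.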

A. baumannii = test: microbe, parasite or virus in culture; details: for MIC90 / MIC: Acinetobacter baumannii
Summary of the method: as §1

Compound: C[C@@H](O)[C@H]1C(=O)N2C(C(=O)O)=C(S[C@@H]3CN[C@H](C(=O)N(C)C)C3)[C@H](C)[C@H]12 [meropenem, reference compound]
- MIC ([1]; ATCC700603, CAMHB, mode of at least three replicates (RO7036668 one replicate)): ≤ 0.06 µg/mL
- MIC ([1]; ATCC700603, read-out: MIC 100%, Study LGC277937, 100%): ≤ 0.06 µg/mL
- MIC ([1]; ATCC700603, read-out: MIC 100%, Study LGC279800, 100%): ≤ 0.06 µg/mL
- MIC ([1]; ATCC700603, read-out: MIC 100%, Study LGC281440, 100%): ≤ 0.06 µg/mL
- MIC ([1]; ATCC700603, read-out: MIC 100%, Study LGC282160, 100%): ≤ 0.06 µg/mL
- MIC ([1]; ATCC700603, read-out: MIC 100%, Study LGC282623, 100%): ≤ 0.06 µg/mL
- MIC ([1]; ATCC700603, read-out: MIC 100%, Study LGC283932, 100%): ≤ 0.06 µg/mL
- MIC ([1]; ATCC700603, read-out: MIC 100%, Study LGC284200, 100%): ≤ 0.06 µg/mL
- MIC ([1]; ATCC700603, read-out: MIC 100%, Study LGC284879, 100%): ≤ 0.06 µg/mL
- MIC ([1]; ATCC700603, read-out: MIC 100%, Study LGC285582, 100%): ≤ 0.06 µg/mL
- MIC ([1]; ATCC700603, read-out: MIC 100%, Study LGC286210, 100%): ≤ 0.06 µg/mL
- MIC ([1]; ATCC700603, read-out: MIC 100%, Study LGC293598, 100%): ≤ 0.06 µg/mL
- MIC ([1]; ATCC700603, read-out: MIC 100%, Study LGC294355, 100%): ≤ 0.06 µg/mL
- MIC ([1]; ATCC700603, read-out: MIC 100%, Study LGC295147, 100%): ≤ 0.06 µg/mL
- MIC ([1]; ATCC700603, read-out: MIC 100%, Study LGC296813, 100%): ≤ 0.06 µg/mL
- MIC ([1]; ATCC700603, read-out: MIC 100%, Study LGC299544, 100%): ≤ 0.06 µg/mL
- MIC ([1]; ATCC700603, read-out: MIC 100%, Study LGC301026, 100%): ≤ 0.06 µg/mL
- MIC ([1]; ATCC700603, read-out: MIC 100%, Study LGC308175, 100%): ≤ 0.06 µg/mL
- MIC ([1]; ATCC700603, read-out: MIC 100%, Study ROC003, 100%): ≤ 0.06 µg/mL
- MIC ([1]; ATCC700603, read-out: MIC 100%, Study ROC004, 100%): ≤ 0.06 µg/mL
- MIC ([1]; ATCC700603, read-out: MIC 100%, Study ROC005, 100%): ≤ 0.06 µg/mL
- MIC ([1]; ATCC700603, read-out: MIC 100%, Study ROC006, 100%): ≤ 0.06 µg/mL
- MIC ([1]; ATCC700603, read-out: MIC 100%, Study ROC007, 100%): ≤ 0.06 µg/mL
- MIC ([1]; ATCC700603, read-out: MIC 100%, Study ROC008, 100%): 0.12 µg/mL (≈ 0.313 µM)
- MIC ([1]; ATCC700603, read-out: MIC 100%, Study ROC009, 100%): 0.06 µg/mL (≈ 0.156 µM)
- MIC ([1]; ATCC700603, read-out: MIC 100%, Study ROC010, 100%): ≤ 0.06 µg/mL
- MIC ([1]; ATCC700603, read-out: MIC 100%, Study ROC012, 100%): ≤ 0.06 µg/mL
- MIC ([1]; ATCC700603, read-out: MIC 100%, Study ROC013, 100%): ≤ 0.06 µg/mL
- MIC range (A. baumannii; 10 MDR isolates, CAMHB, MCPs read at 80% growth inhibition): 1 to 64 µg/mL
- MIC90 (A. baumannii): 64 µg/mL (≈ 167 µM)
- MIC90 (A. baumannii; 129 clinical isolates, CAMHB): > 16 µg/mL
- MIC (A. baumannii; ACC00445, CAMHB, MCPs read at 80% inhibition): > 16 µg/mL
- MIC (A. baumannii; ACC00535, CAMHB, MCPs read at 80% inhibition): > 16 µg/mL
- MIC (A. baumannii; ACC01073, CAMHB, MCPs read at 80% inhibition): 16 µg/mL (≈ 41.7 µM)
- MIC (A. baumannii; ACC01077, CAMHB, MCPs read at 80% inhibition): > 16 µg/mL
- MIC (A. baumannii; ACC01085 / AR0307, CAMHB, MCPs read at 80% inhibition): 8 µg/mL (≈ 20.9 µM)
- MIC (A. baumannii; ATCC17978, ATCC 17978, CAMHB, MCPs read at 80% inhibition): 0.25 µg/mL (≈ 0.652 µM)
- MIC (A. baumannii; ATCC17978, ATCC 17978, CAMHB, one replicate, MCPs read at 80% growth inhibition): 0.5 µg/mL (≈ 1.3 µM)
- MIC (A. baumannii; ATCC17978, read-out: MIC 100%, ATCC 17978, Study LGC301026, 100%): 0.25 µg/mL (≈ 0.652 µM)
- MIC (A. baumannii; ATCC17978, read-out: MIC 100%, ATCC 17978, Study LGC308175, 100%): 0.5 µg/mL (≈ 1.3 µM)
- MIC (A. baumannii; ATCC19606, ATCC 19606, CAMHB, MCPs read at 80% growth inhibition): 1 µg/mL (≈ 2.61 µM)
- MIC (A. baumannii; ATCC19606, ATCC 19606, CAMHB, MCPs read at 80% inhibition): 1 µg/mL (≈ 2.61 µM)
- MIC (A. baumannii; ATCC19606, read-out: MIC 100%, ATCC 19606, Study LGC277937, 100%): 1 µg/mL (≈ 2.61 µM)
- MIC (A. baumannii; ATCC19606, read-out: MIC 100%, ATCC 19606, Study LGC279800, 100%): 1 µg/mL (≈ 2.61 µM)
- MIC (A. baumannii; ATCC19606, read-out: MIC 100%, ATCC 19606, Study LGC281440, 100%): 1 µg/mL (≈ 2.61 µM)
- MIC (A. baumannii; ATCC19606, read-out: MIC 100%, ATCC 19606, Study LGC282160, 100%): 1 µg/mL (≈ 2.61 µM)
- MIC (A. baumannii; ATCC19606, read-out: MIC 100%, ATCC 19606, Study LGC282623, 100%): 0.5 µg/mL (≈ 1.3 µM)
- MIC (A. baumannii; ATCC19606, read-out: MIC 100%, ATCC 19606, Study LGC283932, 100%): 1 µg/mL (≈ 2.61 µM)
- MIC (A. baumannii; ATCC19606, read-out: MIC 100%, ATCC 19606, Study LGC284200, 100%): 1 µg/mL (≈ 2.61 µM)
- MIC (A. baumannii; ATCC19606, read-out: MIC 100%, ATCC 19606, Study LGC284879, 100%): 4 µg/mL (≈ 10.4 µM)
- MIC (A. baumannii; ATCC19606, read-out: MIC 100%, ATCC 19606, Study LGC285582, 100%): 4 µg/mL (≈ 10.4 µM)
- MIC (A. baumannii; ATCC19606, read-out: MIC 100%, ATCC 19606, Study LGC286210, 100%): 2 µg/mL (≈ 5.22 µM)
- MIC (A. baumannii; ATCC19606, read-out: MIC 100%, ATCC 19606, Study LGC293598, 100%): 2 µg/mL (≈ 5.22 µM)
- MIC (A. baumannii; ATCC19606, read-out: MIC 100%, ATCC 19606, Study LGC294355, 100%): 2 µg/mL (≈ 5.22 µM)
- MIC (A. baumannii; ATCC19606, read-out: MIC 100%, ATCC 19606, Study LGC295147, 100%): 2 µg/mL (≈ 5.22 µM)
- MIC (A. baumannii; ATCC19606, read-out: MIC 100%, ATCC 19606, Study LGC296813, 100%): 2 µg/mL (≈ 5.22 µM)
- MIC (A. baumannii; ATCC19606, read-out: MIC 100%, ATCC 19606, Study LGC299544, 100%): 4 µg/mL (≈ 10.4 µM)
- MIC (A. baumannii; ATCC19606, read-out: MIC 100%, ATCC 19606, Study LGC301026, 100%): 4 µg/mL (≈ 10.4 µM)
- MIC (A. baumannii; ATCC19606, read-out: MIC 100%, ATCC 19606, Study LGC308175, 100%): 1 µg/mL (≈ 2.61 µM)
- MIC (A. baumannii; ATCC19606, read-out: MIC 100%, ATCC 19606, Study ROC003, 100%): 1 µg/mL (≈ 2.61 µM)
- MIC (A. baumannii; ATCC19606, read-out: MIC 100%, ATCC 19606, Study ROC004, 100%): 1 µg/mL (≈ 2.61 µM)
- MIC (A. baumannii; ATCC19606, read-out: MIC 100%, ATCC 19606, Study ROC005, 100%): 1 µg/mL (≈ 2.61 µM)
- MIC (A. baumannii; ATCC19606, read-out: MIC 100%, ATCC 19606, Study ROC006, 100%): 1 µg/mL (≈ 2.61 µM)
- MIC (A. baumannii; ATCC19606, read-out: MIC 100%, ATCC 19606, Study ROC007, 100%): 2 µg/mL (≈ 5.22 µM)
- MIC (A. baumannii; ATCC19606, read-out: MIC 100%, ATCC 19606, Study ROC008, 100%): 1 µg/mL (≈ 2.61 µM)
- MIC (A. baumannii; ATCC19606, read-out: MIC 100%, ATCC 19606, Study ROC009, 100%): 2 µg/mL (≈ 5.22 µM)
- MIC (A. baumannii; ATCC19606, read-out: MIC 100%, ATCC 19606, Study ROC010, 100%): 2 µg/mL (≈ 5.22 µM)
- MIC (A. baumannii; ATCC19606, read-out: MIC 100%, ATCC 19606, Study ROC012, 100%): 0.5 µg/mL (≈ 1.3 µM)
- MIC (A. baumannii; ATCC19606, read-out: MIC 100%, ATCC 19606, Study ROC013, 100%): 4 µg/mL (≈ 10.4 µM)
- MIC (A. baumannii; ATCCBAA747, ATCC BAA-747, CAMHB, MCPs read at 80% inhibition): 0.12 µg/mL (≈ 0.313 µM)
- MIC (A. baumannii; ROB08701, CAMHB, MCPs read at 80% inhibition): 1 µg/mL (≈ 2.61 µM)
- MIC (A. baumannii; ROB08702, CAMHB, MCPs read at 80% inhibition): > 16 µg/mL
- MIC (A. baumannii; ROB08703, CAMHB, MCPs read at 80% inhibition): > 16 µg/mL
- MIC (A. baumannii; ROB08704, CAMHB, MCPs read at 80% inhibition): > 16 µg/mL
- MIC (A. baumannii; ROB08705, CAMHB, MCPs read at 80% inhibition): > 16 µg/mL
- MIC (A. baumannii; ROB08706, CAMHB, MCPs read at 80% inhibition): > 16 µg/mL
- MIC (A. baumannii; ROB08707, CAMHB, MCPs read at 80% inhibition): > 16 µg/mL
- MIC (A. baumannii; ROB08708, CAMHB, MCPs read at 80% inhibition): 16 µg/mL (≈ 41.7 µM)
- MIC (A. baumannii; ROB08709, CAMHB, MCPs read at 80% inhibition): > 16 µg/mL
- MIC (A. baumannii; ROB08710, CAMHB, MCPs read at 80% inhibition): > 16 µg/mL
- MIC (A. baumannii; read-out: MIC 100%, ROB08701, Study LGC277937, 100%): 1 µg/mL (≈ 2.61 µM)
- MIC (A. baumannii; read-out: MIC 100%, ROB08701, Study LGC279800, 100%): 1 µg/mL (≈ 2.61 µM)
- MIC (A. baumannii; read-out: MIC 100%, ROB08701, Study LGC281440, 100%): 1 µg/mL (≈ 2.61 µM)
- MIC (A. baumannii; read-out: MIC 100%, ROB08701, Study LGC282160, 100%): 1 µg/mL (≈ 2.61 µM)
- MIC (A. baumannii; read-out: MIC 100%, ROB08701, Study LGC282623, 100%): 1 µg/mL (≈ 2.61 µM)
- MIC (A. baumannii; read-out: MIC 100%, ROB08701, Study LGC283932, 100%): 1 µg/mL (≈ 2.61 µM)
